26 molecules from US11247965B2 (VenatoRx Pharmaceuticals, Inc., priority 2017, dated 2022) can be followed below.

pEC50: −log10 of the molar value.

For series [1], the system named is HBV replication in HepAD38 cells. The series can be described thus: Anti-HBV activity in HepAD38 cells, extracellular HBV DNA by QPCR. Format: cell-based, HBV (genotype D, serotype ayw). Particulars: Hepatitis B virus, HePAD38, 168 h, read-out: Anti-HBV EC50, HepAD38 cells, extracellular HBV DNA by QPCR, 7 days of incubation. An outline of the steps: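 Seven-day compound exposure (30 μM down to 10 nM, half-log steps) after tetracycline withdrawal induced HBV replication in HepAD38 cells. Extracellular viral DNA measured by QPCR (copies/mL via standard curve), normalised to DMSO wells; EC50 from 4-parameter non-linear regression.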

Series [2] can be described thus: In vitro cytotoxicity, MTT cell viability assay in HepG2 cells. Format: cell-based. Particulars: human, Cytotoxicity CC50. An outline of the steps: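 CC50 values reflect loss of HepG2 viability after a 7-day exposure at 37 °C, 5% CO2. After 3-4 h with MTT, solubilized formazan was quantified at 492 nm relative to vehicle wells.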
(Tetrazolium dyes change colour on reduction, which living cells bring about.)

For the molecule `CC(C)n1cc(NC(=O)c2ccc(F)c(C(F)(F)C(=O)N3CCC(O)CC3)c2)cn1` [Example 80, 3-(1,1-difluoro-2-(4-hydroxypiperidin-1-yl)-2-oxoethyl)-4-fluoro-N-(1-isopropyl-1H-pyrazol-4-yl)benzamide], in series [1], the pEC50 (commonly the negative decadic logarithm of the EC50, by convention in mol/L) was less than 4.52. Also, the CC50 – broadly, the concentration at which the toxic effect on the cells reaches its halfway point – at 7 days in series [2] is greater than 30 µM.
The like results for `Cc1cc(NC(=O)c2ccc(F)c(C(F)(F)C(=O)N3CCc4[nH]c(=O)oc4C3)c2)ccc1F` [Example 289, 3-(1,1-difluoro-2-oxo-2-(2-oxo-1,4,6,7-tetrahydrooxazolo[5,4-c]pyridin-5(2H)-yl)ethyl)-4-fluoro-N-(4-fluoro-3-methylphenyl)benzamide] were, in that order, greater than 5.30 and 5 to 30 µM.
For the molecule `Cc1cc(NC(=O)c2ccc(F)c(C(F)(F)C(=O)N3C4COCC3CC(=NO)C4)c2)ccc1F` [Example 273, 3-(1,1-difluoro-2-(7-(hydroxyimino)-3-oxa-9-azabicyclo[3.3.1]nonan-9-yl)-2-oxoethyl)-4-fluoro-N-(4-fluoro-3-methylphenyl)benzamide], the pEC50 in series [1] is greater than 5.30. In addition, the CC50 at 7 days in series [2] was 5 to 30 µM.
The like results for `O=C(Nc1ccc(F)c(F)c1)c1ccc(F)c(C(F)C(=O)N2CCC(O)CC2)c1` (stereo not shown) [Example 32, N-(3,4-difluorophenyl)-4-fluoro-3-(1-fluoro-2-(4-hydroxypiperidin-1-yl)-2-oxoethyl)benzamide] were, in that order, greater than 5.30 and 5 to 30 µM.
For `Cc1cc(NC(=O)c2ccc(F)c(C(F)(F)C(=O)N3C4CC[C@@H]3C[C@@H](NS(C)(=O)=O)C4)c2)ccc1F` [Example 261, 3-(1,1-difluoro-2-((1R,3s,5S)-3-(methylsulfonamido)-8-azabicyclo[3.2.1]octan-8-yl)-2-oxoethyl)-4-fluoro-N-(4-fluoro-3-methylphenyl)benzamide] the same measures were greater than 5.30 and less than 5 µM.
As to `Cc1cc(NC(=O)c2ccc(F)c(C(F)(F)C(=O)N3C[C@H]4CC[C@@H](C3)C4=O)c2)ccc1F` [Example 280, 3-(1,1-difluoro-2-oxo-2-((1R,5S)-8-oxo-3-azabicyclo[3.2.1]octan-3-yl)ethyl)-4-fluoro-N-(4-fluoro-3-methylphenyl)benzamide], the pEC50 in series [1] was greater than 5.30. For the same molecule, in series [2], the cytotoxic concentration (CC50) at 7 days lay in the range of 5 to 30 µM.
The like results for `O=C(Nc1ccc(F)c(F)c1)c1ccc(F)c(C(F)(F)C(=O)N2CCCCC2)c1` [Example 11, 3-(1,1-difluoro-2-oxo-2-(piperidin-1-yl)ethyl)-N-(3,4-difluorophenyl)-4-fluorobenzamide] were, in that order, 4.52 to 5.30 and 5 to 30 µM.
For `Cc1cc(NC(=O)c2ccc(C(F)(F)C(=O)N3CCC(O)CC3)s2)ccc1F` [Example 63, 5-(1,1-difluoro-2-(4-hydroxypiperidin-1-yl)-2-oxoethyl)-N-(4-fluoro-3-methylphenyl)thiophene-2-carboxamide] the same measures were less than 4.52 and 5 to 30 µM.
For `CCN(CCCO)C(=O)C(F)(F)c1cc(C(=O)Nc2ccc(F)c(F)c2)ccc1F` [Example 46, N-(3,4-difluorophenyl)-3-(2-(ethyl(3-hydroxypropyl)amino)-1,1-difluoro-2-oxoethyl)-4-fluorobenzamide] the same measures were 4.52 to 5.30 and greater than 30 µM.
As for `Cc1cc(NC(=O)c2ccc(F)c(C(F)(F)C(=O)N3CCC(N)C(C)(C)C3)n2)ccc1F` (stereo not shown) [Example 304, 6-(2-(4-amino-3,3-dimethylpiperidin-1-yl)-1,1-difluoro-2-oxoethyl)-5-fluoro-N-(4-fluoro-3-methylphenyl)picolinamide], the pEC50 in series [1] is greater than 5.30. This molecule returned a CC50 at 7 days in series [2] of 5 to 30 µM.
For `Cc1cc(NC(=O)c2ccc(F)c(C(F)(F)C(=O)N3C4CC[C@@H]3C[C@H](NS(C)(=O)=O)C4)c2)ccc1F` [Example 262, 3-(1,1-difluoro-2-((1R,3r,5S)-3-(methylsulfonamido)-8-azabicyclo[3.2.1]octan-8-yl)-2-oxoethyl)-4-fluoro-N-(4-fluoro-3-methylphenyl)benzamide] the same measures were greater than 5.30 and 5 to 30 µM.
The like results for `Cc1cc(NC(=O)c2ccc(F)c(C(F)(F)C(=O)N3CCC(N)C(F)(F)C3)c2)ccc1F` (stereo not shown) [Example 334, 3-(2-(4-amino-3,3-difluoropiperidin-1-yl)-1,1-difluoro-2-oxoethyl)-4-fluoro-N-(4-fluoro-3-methylphenyl)benzamide] were, in that order, greater than 5.30 and 5 to 30 µM.
For `CC(C)n1cc(NC(=O)c2ccc(F)c(C(F)(F)C(=O)N3[C@@H]4CC[C@H]3C[C@@H](O)C4)c2)cn1` [Example 184, 3-(1,1-difluoro-2-((1R,3r,5S)-3-hydroxy-8-azabicyclo[3.2.1]octan-8-yl)-2-oxoethyl)-4-fluoro-N-(1-isopropyl-1H-pyrazol-4-yl)benzamide], in series [1], the pEC50 is 4.52 to 5.30. Moreover, in series [2], the CC50 at 7 days is greater than 30 µM.
For `CO[C@H]1CC2CC[C@H](C1)N2C(=O)C(F)(F)c1cc(C(=O)Nc2ccc(F)c(C)c2)ccc1F` [Example 277, 3-(1,1-difluoro-2-((1R,3s,5S)-3-methoxy-8-azabicyclo[3.2.1]octan-8-yl)-2-oxoethyl)-4-fluoro-N-(4-fluoro-3-methylphenyl)benzamide] the same measures were greater than 5.30 and 5 to 30 µM.
For `COc1ccc(C(F)(F)C(=O)N2CCC(O)CC2)cc1C(=O)Nc1ccc(F)c(C)c1` [Example 91, 5-(1,1-difluoro-2-(4-hydroxypiperidin-1-yl)-2-oxoethyl)-N-(4-fluoro-3-methylphenyl)-2-methoxybenzamide] the same measures were less than 4.52 and greater than 30 µM.
The like results for `CC(=O)NC1CCN(C(=O)C(F)(F)c2nc(C(=O)Nc3ccc(F)c(C)c3)ccc2F)CC1(C)C` (stereo not shown) [Example 305, 6-(2-(4-acetamido-3,3-dimethylpiperidin-1-yl)-1,1-difluoro-2-oxoethyl)-5-fluoro-N-(4-fluoro-3-methylphenyl)picolinamide] were, in that order, greater than 5.30 and 5 to 30 µM.
With `O=C(Nc1ccc(F)c(F)c1)c1ccc(F)c(C(F)(F)C(=O)NC[C@@H](O)CO)c1` [Example 53, (R)—N-(3,4-difluorophenyl)-3-(2-((2,3-dihydroxypropyl)amino)-1,1-difluoro-2-oxoethyl)-4-fluorobenzamide], the negative-log EC50 (pEC50) in series [1] was greater than 5.30. Besides, in series [2], the CC50 at 7 days was greater than 30 µM.
For `Cc1cc(NC(=O)c2ccc(F)c(C(F)(F)C(=O)N3[C@@H]4COC[C@H]3CN(S(C)(=O)=O)C4)c2)ccc1F` [Example 211, 3-(1,1-difluoro-2-((1R,5S)-7-(methylsulfonyl)-3-oxa-7,9-diazabicyclo[3.3.1]nonan-9-yl)-2-oxoethyl)-4-fluoro-N-(4-fluoro-3-methylphenyl)benzamide] the same measures were greater than 5.30 and greater than 30 µM.
Take `Cc1cc(NC(=O)c2ccc(F)c(C(F)(F)C(=O)N3CCC[C@H]3B(O)O)c2)ccc1F` [Example 153, (R)-(1-(2,2-difluoro-2-(2-fluoro-5-((4-fluoro-3-methylphenyl)carbamoyl)phenyl)acetyl)pyrrolidin-2-yl)boronic acid]: the pEC50 in series [1] was greater than 5.30. The molecule further showed a CC50 at 7 days in series [2] greater than 30 µM.
Take `Cn1cc(NC(=O)c2ccc(F)c(C(F)(F)C(=O)N3CCC(O)CC3)c2)cn1` [Example 89, 3-(1,1-difluoro-2-(4-hydroxypiperidin-1-yl)-2-oxoethyl)-4-fluoro-N-(1-methyl-1H-pyrazol-4-yl)benzamide]: the pEC50 in series [1] is less than 4.52. The molecule further yielded a CC50 at 7 days in series [2] of 5 to 30 µM.
For `Cc1cc(NC(=O)c2ccc(F)c(C(F)(F)C(=O)N3CC4CCC(C3)C4O)c2)ccc1F` [Example 281, 3-(1,1-difluoro-2-((1R,5S,8s)-8-hydroxy-3-azabicyclo[3.2.1]octan-3-yl)-2-oxoethyl)-4-fluoro-N-(4-fluoro-3-methylphenyl)benzamide] the same measures were greater than 5.30 and 5 to 30 µM.
For `Cc1cc(NC(=O)c2ccc(C(F)(F)C(=O)NC(C)(C)C)s2)ccc1F` [Example 81, 5-(2-(tert-butylamino)-1,1-difluoro-2-oxoethyl)-N-(4-fluoro-3-methylphenyl)thiophene-2-carboxamide] the same measures were 4.52 to 5.30 and greater than 30 µM.
For `Cc1cc(NC(=O)c2ccn(C)c2C(F)(F)C(=O)NC(C)C(F)(F)F)ccc1F` (stereo not shown) [Example 112, 2-(1,1-difluoro-2-oxo-2-((1,1,1-trifluoropropan-2-yl)amino)ethyl)-N-(4-fluoro-3-methylphenyl)-1-methyl-1H-pyrrole-3-carboxamide] the same measures were less than 4.52 and greater than 30 µM.
As for `O=C(Nc1ccc(F)c(Br)c1)c1ccc(F)c(C(F)(F)C(=O)N2CCC(O)C(F)(F)C2)c1` (stereo not shown) [Example 175, N-(3-bromo-4-fluorophenyl)-3-(2-(3,3-difluoro-4-hydroxypiperidin-1-yl)-1,1-difluoro-2-oxoethyl)-4-fluorobenzamide], the pEC50 in series [1] was greater than 5.30. In series [2], this molecule displayed a CC50 at 7 days of 5 to 30 µM.
The like results for `Cc1cc(NC(=O)c2ccc(F)c(C(F)(F)C(=O)N3[C@@H]4CC[C@H]3C[C@H](O)C4)c2)cc(F)n1` [Example 223, 3-(1,1-difluoro-2-((1R,3s,5S)-3-hydroxy-8-azabicyclo[3.2.1]octan-8-yl)-2-oxoethyl)-4-fluoro-N-(2-fluoro-6-methylpyridin-4-yl)benzamide] were, in that order, greater than 5.30 and less than 5 µM.
As to `Cc1cc(NC(=O)c2ccc(F)c(C(F)(F)C(=O)N3CCn4c(nnc4C(F)(F)F)C3)c2)ccc1F` [Example 341, 3-(1,1-difluoro-2-oxo-2-(3-(trifluoromethyl)-5,6-dihydro-[1,2,4]triazolo[4,3-a]pyrazin-7(8H)-yl)ethyl)-4-fluoro-N-(4-fluoro-3-methylphenyl)benzamide], the pEC50 in series [1] was 4.52 to 5.30. The molecule further yielded a CC50 at 7 days in series [2] of 5 to 30 µM.
